Experimental data published in patent US10976310B2, “Ligand identification by co-fractionation” (MAX-PLANCK-GESELLSCHAFT ZUR FÖRDERUNG DER WISSENSCHAFTEN …, priority 2016, dated 2021).
Like-named read-outs stand apart in the source and are kept apart here. Values belong to the compound of their own block, whether it stands above or below them. Peptide text beside a SMILES is read from it.

Experiments:
FBA6 = target: T1, FBA6 (Arabidopsis thaliana, UniProt Q9SJQ9); assay: Microscale thermophoresis (MST) binding to FBA6 expressed and purified from E. coli
T1 construct: made in house; host or cells: E. coli
T1 sequence (Q9SJQ9 1-358): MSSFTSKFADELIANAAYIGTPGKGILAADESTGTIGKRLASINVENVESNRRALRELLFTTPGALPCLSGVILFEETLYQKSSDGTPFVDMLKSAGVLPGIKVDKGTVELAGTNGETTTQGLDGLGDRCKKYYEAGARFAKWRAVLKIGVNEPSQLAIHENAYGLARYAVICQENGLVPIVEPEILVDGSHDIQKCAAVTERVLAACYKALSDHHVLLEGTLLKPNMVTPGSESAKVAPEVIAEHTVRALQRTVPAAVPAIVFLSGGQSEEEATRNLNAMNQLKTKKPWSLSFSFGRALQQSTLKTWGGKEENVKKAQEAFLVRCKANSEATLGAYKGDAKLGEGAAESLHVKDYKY
Text: FBA6 protein was expressed and purified from E. coli. MST uses the intristic tendency of all the biological molecules to move in the temperature gradient. This movement is dependent on the molecule size, charge and hydration shell. Complex formation affects at least one of the three parameters changing the movement and indicating binding event. […] The results obtained point to both strong and specific interaction.

[1] = target: T2, Methylthioribose-1-phosphate isomerase (MTR-1-P) (Arabidopsis thaliana, UniProt Q9ZUG4); assay: Microscale thermophoresis (MST) assay, MTA-MTR-1-P interaction; format: binding; details: mean±SD, n=3
T2 sequence (Q9ZUG4 1-374): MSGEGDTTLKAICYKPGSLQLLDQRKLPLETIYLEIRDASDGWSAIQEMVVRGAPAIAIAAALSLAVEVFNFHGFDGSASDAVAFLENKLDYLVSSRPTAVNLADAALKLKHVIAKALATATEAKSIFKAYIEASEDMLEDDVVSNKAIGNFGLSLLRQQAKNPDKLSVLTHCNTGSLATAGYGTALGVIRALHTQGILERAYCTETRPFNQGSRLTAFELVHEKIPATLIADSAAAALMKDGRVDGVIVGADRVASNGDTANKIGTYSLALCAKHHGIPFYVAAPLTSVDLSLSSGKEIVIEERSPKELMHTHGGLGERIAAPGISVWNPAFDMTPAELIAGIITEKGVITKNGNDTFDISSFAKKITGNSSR

[2] = target: T3, gibberellin receptor GID1 (Oryza sativa subsp. japonica, UniProt Q6L545); details: Ueguchi-Tanaka et al. (2005); read-out: Kd of binding to GID1; cited from earlier work
T3 sequence (Q6L545 1-354): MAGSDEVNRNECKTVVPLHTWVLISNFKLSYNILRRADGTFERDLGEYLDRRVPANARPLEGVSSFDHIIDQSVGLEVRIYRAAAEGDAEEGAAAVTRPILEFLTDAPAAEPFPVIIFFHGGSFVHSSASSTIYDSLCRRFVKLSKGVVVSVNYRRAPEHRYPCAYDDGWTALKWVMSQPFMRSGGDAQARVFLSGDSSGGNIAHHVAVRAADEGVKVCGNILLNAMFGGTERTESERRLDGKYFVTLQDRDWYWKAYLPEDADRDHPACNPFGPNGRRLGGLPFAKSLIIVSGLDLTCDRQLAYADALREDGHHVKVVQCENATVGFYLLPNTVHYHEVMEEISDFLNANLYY

TIA1 = target: T4, TIA1 (Homo sapiens, UniProt P31483); assay: MST measurement of ligand binding to recombinant TIA1
T4 construct: purchased Origene (Herford, Germany)
T4 sequence (P31483 1-386): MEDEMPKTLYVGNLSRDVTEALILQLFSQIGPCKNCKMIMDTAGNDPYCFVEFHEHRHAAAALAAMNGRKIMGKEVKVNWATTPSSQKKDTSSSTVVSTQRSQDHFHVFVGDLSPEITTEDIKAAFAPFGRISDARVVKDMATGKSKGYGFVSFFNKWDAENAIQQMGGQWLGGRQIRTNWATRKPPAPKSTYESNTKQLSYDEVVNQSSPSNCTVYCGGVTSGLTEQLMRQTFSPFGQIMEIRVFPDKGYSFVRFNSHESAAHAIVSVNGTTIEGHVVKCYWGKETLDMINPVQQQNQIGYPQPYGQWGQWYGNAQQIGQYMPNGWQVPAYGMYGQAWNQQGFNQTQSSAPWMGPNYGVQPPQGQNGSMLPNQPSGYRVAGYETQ
Method: Expecting such a basic role of 2′,3′-cAMP to be conserved, we performed similar analysis with TIA1, the human functional homolog of Rbp47b. TIA1 was labeled and its interaction with 2′,3′-cAMP was determined using MST.
TIA1 protein was purchased from Origene (Herford, Germany). Rbp47b was cloned as a C-terminal GFP fusion (to increase protein solubility) into the E. coli expression vector pDEST14 containing His6-tag at the N-terminal of the Gateway (Karlsruhe, Germany) cassette. Rosetta cells expressing His6-Rbp47b-GFP were grown at 28° C. overnight and next day were moved to Terrific Broth medium supplied with 1% sucrose and relevant antibiotics. Cultures at OD 0.4 were induced by addition of 0.1 mM IPTG and transferred to 16° C. for overnight incubation.
MST measurements were performed using a Monolith NT.115 instrument (NanoTemper, München, Germany). Capillaries were loaded into the instrument as sets of 13-16 point ligand titrations. Proteins (Rb47b and TIA1) were labeled in phosphate buffer (PBS) using Monolith™ protein labeling kit RED-NHS (amine reactive; MO-L001) according to the manufacturers instruction. Excitation was optimized by varying the LED power to yield emission intensities above 200 AU, corresponding to 10-50 nM labeled protein. Monolith power was set to 60%. Ligands [2′,3′-cAMP (Sigma A9376)] and [3′,5′-cAMP (Sigma A6885)] were dissolved in PBS. […]

Rbp47b-TAP protein = target: T5, Rbp47b-TAP protein (Arabidopsis thaliana, UniProt Q0WW84); assay: Cellular thermal shift assay (CETSA) in native Arabidopsis lysate; format: binding; details: analogous experiment, native protein lysate
T5 construct: expressed in transfected cells; host or cells: Arabidopsis cell suspension culture, Agrobacterium-transformed
T5 sequence (Q0WW84 1-435): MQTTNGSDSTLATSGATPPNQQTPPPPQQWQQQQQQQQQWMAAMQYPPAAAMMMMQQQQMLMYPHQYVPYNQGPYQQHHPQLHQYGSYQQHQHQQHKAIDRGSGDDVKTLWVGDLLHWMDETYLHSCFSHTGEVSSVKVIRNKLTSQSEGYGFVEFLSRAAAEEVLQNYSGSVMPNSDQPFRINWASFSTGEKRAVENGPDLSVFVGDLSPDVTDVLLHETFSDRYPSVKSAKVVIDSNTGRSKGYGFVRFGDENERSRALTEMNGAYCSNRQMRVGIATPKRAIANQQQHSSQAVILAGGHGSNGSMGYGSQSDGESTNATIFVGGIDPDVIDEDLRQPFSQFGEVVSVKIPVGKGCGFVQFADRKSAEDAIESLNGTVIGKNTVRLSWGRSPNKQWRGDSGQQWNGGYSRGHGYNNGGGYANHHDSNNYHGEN
Method: To this end we set out to identify the binding protein partners of 2′,3′-cAMP by applying affinity purification (AP) using agarose beads, with 2′,3′-cAMP linked via the NH2 group of the purine ring. After incubation of the beads with total soluble-protein extracts from A. thaliana cell suspension cultures (cf. Materials and Methods) sequential washings with ADP, GDP, 5′-AMP, and finally 2′,3′-cAMP were performed, and the proteins eluting in the different washings were analyzed by LC-MS/MS proteomics. Proteins eluting from the agarose beads exclusively with 2′,3′-cAMP but absent in any of the other eluents (ADP, GDP, or 5′-AMP; FIG. 10A) were defined as 2′,3′-cAMP-binding. Applying this stringent criterion only one protein remained: the polyadenylate-binding protein Rbp47b. We reasoned that the putative formation of Rbp47b-2′,3′-cAMP complexes in vivo should be reflected by largely overlapping elution profiles of the two components in a size-exclusion experiment (SEC), as was indeed the case (FIG. 10B). To obtain further and independent evidence for the formation of a complex between Rbp47b and 2′,3′-cAMP, we performed a cellular thermal shift assay (CETSA) (Franken et al. (2015) Thermal proteome profiling for unbiased identification of direct and indirect drug targets using multiplexed quantitative mass spectrometry. Nat Protoc 10: 1567-1593). CESTA is a method used in the drug research to verify ligand-receptor binding in the native cellular lysate, based on the observation that presence of the ligand changes thermal stability of the protein receptor. Herein, we adapted the protocol to be suitable for the plant material and an endogenous […] metabolite. We used Arabidopsis cells expressing a tagged version of the Rbp47b, so that Rbp47b level could be easily detected with the anti-tag antibody. […] Taken together, three independent experimental approaches (AP, SEC, and CETSA) provide evidence for the binding of 2′,3′-cAMP to Rbp47b in the native Arabidopsis lysate. […]

Rbp47b = target: T6, Rbp47b (Arabidopsis thaliana, UniProt Q0WW84); assay: MST measurement of ligand binding to recombinant Rbp47b
T6 sequence (Q0WW84 1-435): T5 sequence (Q0WW84 1-435)
Text: We therefore attempted to determine the in vitro binding affinity biophysically using micro-scale thermophoresis (MST) (Jerabek-Willemsen et al. (2011) Molecular interaction studies using microscale thermophoresis. Assay Drug Dev Technol 9: 342-353). MST exploits the effect of size, charge, and hydration shell on the movement of molecules in a temperature gradient. Complex formation resulting in alteration of at least one of the three parameters leads to differential movement, from which the binding affinity can be determined. For the purpose of the MST experiment, Rbp47b was expressed in and purified from E. coli. […] The measured Kd value also corresponds to the ˜20 μM concentration of 2′,3′-cAMP measured in the native Arabidopsis lysate (FIG. 11B).
TIA1 protein was purchased from Origene (Herford, Germany). Rbp47b was cloned as a C-terminal GFP fusion (to increase protein solubility) into the E. coli expression vector pDEST14 containing His6-tag at the N-terminal of the Gateway (Karlsruhe, Germany) cassette. […]
Next day, cells were disrupted with an Avestin (Mannheim, Germany) EmulsiFlex C3 homogenizer and the protein was purified using imidazole-gradient purification in Ni-NTA agarose (Qiagen 34080, Hilden, Germany). […] Protein purity was assessed by SDS-PAGE and protein identification was done using western blot using anti-His6 antibodies. […]

[3] = target: T7, 3-methyl-2 oxobutanoate hydroxymethyl-transferase 1 (KPHMT1) (Arabidopsis thaliana, UniProt O82357); assay: Microscale thermophoresis (MST) assay, Panthotenate-KPHMT1 interaction; format: binding; details: mean±SD, n=3
T7 sequence (O82357 49-347): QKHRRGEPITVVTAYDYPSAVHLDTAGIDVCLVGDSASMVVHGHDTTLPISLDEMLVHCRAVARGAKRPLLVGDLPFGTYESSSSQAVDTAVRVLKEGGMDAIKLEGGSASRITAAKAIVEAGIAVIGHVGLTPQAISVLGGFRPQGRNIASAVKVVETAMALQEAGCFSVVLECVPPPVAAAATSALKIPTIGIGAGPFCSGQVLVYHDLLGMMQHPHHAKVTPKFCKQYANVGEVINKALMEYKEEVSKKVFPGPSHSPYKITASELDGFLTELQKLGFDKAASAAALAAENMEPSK
Method: B) Panthotenate-KPHMT1 interaction was tested by Microscale thermophoresis (MST) assay. […] Data are mean±SD, n=3.

Compound: dihydroxyacetone phosphate [DHAP]
Kd (FBA6; MST, FBA6 purified from E. coli, read-out: Kd of binding to FBA6): ~200 nM

Compound: CSC[C@H]1O[C@@H](n2cnc3c(N)ncnc32)[C@H](O)[C@@H]1O [MTA, Methylthioadenosine]
Kd [1]: 2700 nM

Compound: NCC(=O)N1CCC[C@H]1C(=O)O [Gly-Pro, L-Gly-L-Pro] (H-Gly-Pro-OH)
Kd (FBA6): ~200 nM

binding to FBA6 (in words) (FBA6; MST): not
Compound: O=C(O)CNC(=O)[C@@H]1CCCN1 [Pro-Gly] (H-Pro-Gly-OH)

Compound: CC1C[C@]23C[C@H]1CCC2[C@]12CC[C@H](O)[C@](C)(C(=O)O1)[C@H]2[C@@H]3C(=O)O (stereo partly drawn) [16,17-dihydro-GA4]
Kd [2]: 1400 nM

binding to TIA1 (in words) (TIA1): not
effect on thermal stability of Rbp47b (in words) (Rbp47b-TAP protein): No such effect was observed
binding to Rbp47b (in words) (Rbp47b): did not observe any binding
Compound: Nc1ncnc2c1ncn2[C@@H]1O[C@@H]2COP(=O)(O)O[C@H]2[C@H]1O [3′,5′-cAMP, reference compound]

Compound: CC(C)(CO)[C@@H](O)C(=O)NCCC(=O)O [Panthotenate, Pantothenic acid]
Kd [3]: 367000 nM
